Measurements published in PMC10082216 (Nature Communications, 2023).
Like-named read-outs stand apart in the source and are kept apart here.

Experiment: TD-6450 phase I clinical study (SAD/MAD): pharmacokinetics
Type: in vivo, human
Details: human; for TD-6450 Concentration (ng/ml), Female subjects: in vivo; for TD-6450 Concentration (ng/ml), Female subjects / concentration at 1 h / concentration at 2 h / concentration at 3 h / concentration at 4 h / concentration at 6 h / concentration at 8 h / concentration at 12 h / concentration at 15 min / concentration at 24 h / concentration at 30 min / concentration at 48 h / concentration at 72 h / concentration at 96 h / concentration at 120 h / concentration at 144 h / concentration at 168 h: female; for concentration at 1 h / concentration at 2 h / concentration at 3 h / concentration at 4 h / concentration at 6 h / concentration at 8 h / concentration at 12 h / concentration at 15 min / concentration at 24 h / concentration at 30 min / concentration at 48 h / concentration at 72 h / concentration at 96 h / concentration at 120 h / concentration at 144 h / concentration at 168 h: Female subjects, read-out: Concentration
Experimental: Primary and secondary outcomes were pre-defined as follows: Safety and tolerability as a primary outcome, pharmacokinetics as a secondary outcome. Safety and tolerability were evaluated using standard measures, including adverse event (AE) monitoring, clinical laboratory tests (hematology, serum chemistry, coagulation, and urinalysis), vital signs, physical examinations, and 12-lead electrocardiograms (ECGs). […]
This study was conducted in two parts, Part A (SAD) and Part B (MAD). For the Part A, the age of enrolled subjects ranged from 20 to 60 years, with a mean age range of 32.1 to 46.2 years. Most subjects were male (73 total subjects) and most were white (55 subjects) or black (22 subjects). For Part B of the study, ages ranged from 23 to 60 years with a similar mean age across treatment groups. Most subjects were male (25 total subjects) and all were either white (18 subjects) or black (12 subjects). For each part of the study, the mean body mass index (BMI) and creatinine clearance were similar across treatment groups. […] Part A: Healthy subjects were sequentially enrolled and randomly assigned to each dose cohort (up to 10 dose-ascending cohorts were planned, including a fed arm in the food effect cohort) to receive either a single dose of TD-6450 or placebo. For each dose cohort, 8 subjects were randomized in a 3:1 ratio (6 subjects received TD-6450 and 2 subjects received placebo). The starting dose of TD-6450 was 0.5 mg with a planned maximum dose of 1000 mg. Upon review of the 500-mg cohort PK data, the decision was made to not escalate to the 1000-mg cohort because of exposure saturation at ≥ 500 mg. The following doses were administered: 0.5 mg, 1.5 mg, 5 mg, 15 mg, 30 mg, 60 mg, 120 mg, 240 mg, and 500 mg. Part B: Healthy subjects were sequentially enrolled in 3 ascending dose cohorts (TD-6450 60 mg, 120 mg, and 240 mg) and randomly assigned to receive either TD-6450 or placebo as once daily doses for 14 days. For each dose cohort, 10 subjects were randomized in a 4:1 ratio (8 subjects received TD-6450 and 2 subjects received placebo). Blinded safety, tolerability, and available PK data after each dose cohort were reviewed by the Safety Data Review Committee (SDRC) before escalation to the next dosing cohort for both part A and B. Subjects of the clinical study were randomly assigned to each cohort. Randomizations codes were assigned to the subjects. All study subjects, study investigators, and the sponsor’s staff involved in the conduct of the study were blinded to treatment assignment. The only personnel who had access to the randomization code before database lock were: The pharmacist or pharmacy staff member who prepared drug or placebo capsules for administration to the subject according to the randomization code and the bioanalytical contract laboratory that analyzed the PK samples (plasma and urine).

Compound `CNC(=O)N1C[C@@H](C)N(c2ccc(C(=O)Nc3ccc(-c4ccc(-c5c[nH]c([C@@H]6CCCN6C(=O)[C@@H](NC(=O)OC)C(C)C)n5)cc4)c(OC(F)(F)F)c3)cn2)C[C@@H]1C` [TD-6450] has a Cmax at 1 day (both sexes, plasma, oral, 120 mg, MAD 120 mg, day 1, read-out: Cmax Mean ± SD, D1) of 216 ± 58 nM, a Cmax at 14 day (both sexes, plasma, oral, 120 mg, MAD 120 mg, day 14, read-out: Cmax Mean ± SD, D14) of 1010 ± 349 nM and a half-life at 14 day (both sexes, plasma, oral, 120 mg, MAD 120 mg, day 14, read-out: t1/2 Mean ± SD, D14 (converted)) of 66.4 ± 15 h. It also gave a Cmax (both sexes, plasma, oral, 120 mg, SAD 120 mg, read-out: Cmax Mean ± SD) of 174 ± 93.9 nM, a half-life (both sexes, plasma, oral, 120 mg, SAD 120 mg, read-out: t1/2 Mean ± SD (converted)) of 78.4 ± 13 h and a Cmax (both sexes, plasma, oral, 240 mg, MAD 240 mg, day 1, read-out: Cmax Mean ± SD, D1) of 459 ± 203 nM. For the same compound, the Cmax (both sexes, plasma, oral, 240 mg, MAD 240 mg, day 14, read-out: Cmax Mean ± SD, D14) was 1770 ± 218 nM, the half-life (both sexes, plasma, oral, 240 mg, MAD 240 mg, day 14, read-out: t1/2 Mean ± SD, D14 (converted)) was 59.8 ± 12 h and the Cmax (both sexes, plasma, oral, 240 mg, SAD 240 mg, read-out: Cmax Mean ± SD) was 278 ± 134 nM. The half-life (both sexes, plasma, oral, 240 mg, SAD 240 mg, read-out: t1/2 Mean ± SD (converted)) was 64.7 ± 7.7 h, the Cmax (both sexes, plasma, oral, 500 mg, SAD 500 mg, read-out: Cmax Mean ± SD) was 244 ± 114 nM and the half-life (both sexes, plasma, oral, 500 mg, SAD 500 mg, read-out: t1/2 Mean ± SD (converted)) was 54.9 ± 5.5 h. The “TD-6450 Concentration (ng/ml), Female subjects” value (“TD-6450 Concentration (ng/ml)” below) (4 h) was 48.60 ng/mL, the “TD-6450 Concentration (ng/ml)” value (6 h) was 213.00 ng/mL and the “TD-6450 Concentration (ng/ml)” value (8 h) was 215.00 ng/mL. It also gave a concentration at 1 h (plasma, oral, 0.5 mg, SAD arm NCT02022306, Dose 0.50, 1 Hour) of 0 ng/mL, a concentration at 2 h (plasma, oral, 0.5 mg, SAD arm NCT02022306, Dose 0.50, 2 Hours) of 0 ng/mL and a concentration at 3 h (plasma, oral, 0.5 mg, SAD arm NCT02022306, Dose 0.50, 3 Hours) of 0.52 ng/mL. The concentration at 4 h (plasma, oral, 0.5 mg, SAD arm NCT02022306, Dose 0.50, 4 Hours) was 0.48 ng/mL, the concentration at 6 h (plasma, oral, 0.5 mg, SAD arm NCT02022306, Dose 0.50, 6 Hours) was 0.67 ng/mL and the concentration at 8 h (plasma, oral, 0.5 mg, SAD arm NCT02022306, Dose 0.50, 8 Hours) was 0.31 ng/mL. It also gave a concentration at 12 h (plasma, oral, 0.5 mg, SAD arm NCT02022306, Dose 0.50, 12 Hours) of 0 ng/mL, a concentration at 15 min (plasma, oral, 0.5 mg, SAD arm NCT02022306, Dose 0.50, 15 Minutes) of 0 ng/mL and a concentration at 24 h (plasma, oral, 0.5 mg, SAD arm NCT02022306, Dose 0.50, 24 Hours) of 0 ng/mL. It also gave a concentration at 30 min (plasma, oral, 0.5 mg, SAD arm NCT02022306, Dose 0.50, 30 Minutes) of 0 ng/mL, a concentration at 48 h (plasma, oral, 0.5 mg, SAD arm NCT02022306, Dose 0.50, 48 Hours) of 0.26 ng/mL and a concentration at 72 h (plasma, oral, 0.5 mg, SAD arm NCT02022306, Dose 0.50, 72 Hours) of 0.28 ng/mL. For the same compound, the concentration at 96 h (plasma, oral, 0.5 mg, SAD arm NCT02022306, Dose 0.50, 96 Hours) was 0 ng/mL, the concentration at 120 h (plasma, oral, 0.5 mg, SAD arm NCT02022306, Dose 0.50, 120 Hours) was 0 ng/mL and the concentration at 144 h (plasma, oral, 0.5 mg, SAD arm NCT02022306, Dose 0.50, 144 Hours) was 0 ng/mL. For the same compound, the concentration at 168 h (plasma, oral, 0.5 mg, SAD arm NCT02022306, Dose 0.50, 168 Hours) was 0 ng/mL, the concentration at 1 h (plasma, oral, 5 mg, SAD arm NCT02022306, Dose 5.00, 1 Hour) was 0.91 ng/mL and the concentration at 2 h (plasma, oral, 5 mg, SAD arm NCT02022306, Dose 5.00, 2 Hours) was 2.32 ng/mL. The concentration at 3 h (plasma, oral, 5 mg, SAD arm NCT02022306, Dose 5.00, 3 Hours) was 3.81 ng/mL, the concentration at 4 h (plasma, oral, 5 mg, SAD arm NCT02022306, Dose 5.00, 4 Hours) was 4.11 ng/mL and the concentration at 6 h (plasma, oral, 5 mg, SAD arm NCT02022306, Dose 5.00, 6 Hours) was 4.27 ng/mL. For the same compound, the concentration at 8 h (plasma, oral, 5 mg, SAD arm NCT02022306, Dose 5.00, 8 Hours) was 3.7 ng/mL, the concentration at 12 h (plasma, oral, 5 mg, SAD arm NCT02022306, Dose 5.00, 12 Hours) was 3.01 ng/mL and the concentration at 15 min (plasma, oral, 5 mg, SAD arm NCT02022306, Dose 5.00, 15 Minutes) was 0 ng/mL. For the same compound, the concentration at 24 h (plasma, oral, 5 mg, SAD arm NCT02022306, Dose 5.00, 24 Hours) was 2.55 ng/mL, the concentration at 30 min (plasma, oral, 5 mg, SAD arm NCT02022306, Dose 5.00, 30 Minutes) was 0 ng/mL and the concentration at 48 h (plasma, oral, 5 mg, SAD arm NCT02022306, Dose 5.00, 48 Hours) was 2.13 ng/mL. The concentration at 72 h (plasma, oral, 5 mg, SAD arm NCT02022306, Dose 5.00, 72 Hours) was 1.75 ng/mL, the concentration at 96 h (plasma, oral, 5 mg, SAD arm NCT02022306, Dose 5.00, 96 Hours) was 1.15 ng/mL and the concentration at 144 h (plasma, oral, 5 mg, SAD arm NCT02022306, Dose 5.00, 144 Hours) was 0.77 ng/mL. For the same compound, the concentration at 168 h (plasma, oral, 5 mg, SAD arm NCT02022306, Dose 5.00, 168 Hours) was 0.61 ng/mL, the concentration at 1 h (plasma, oral, 15 mg, SAD arm NCT02022306, Dose 15.00, 1 Hour) was 1.46 ng/mL and the concentration at 2 h (plasma, oral, 15 mg, SAD arm NCT02022306, Dose 15.00, 2 Hours) was 10.1 ng/mL. For the same compound, the concentration at 3 h (plasma, oral, 15 mg, SAD arm NCT02022306, Dose 15.00, 3 Hours) was 13.9 ng/mL, the concentration at 4 h (plasma, oral, 15 mg, SAD arm NCT02022306, Dose 15.00, 4 Hours) was 18 ng/mL and the concentration at 6 h (plasma, oral, 15 mg, SAD arm NCT02022306, Dose 15.00, 6 Hours) was 18.1 ng/mL. For the same compound, the concentration at 8 h (plasma, oral, 15 mg, SAD arm NCT02022306, Dose 15.00, 8 Hours) was 15.1 ng/mL, the concentration at 12 h (plasma, oral, 15 mg, SAD arm NCT02022306, Dose 15.00, 12 Hours) was 10.7 ng/mL and the concentration at 15 min (plasma, oral, 15 mg, SAD arm NCT02022306, Dose 15.00, 15 Minutes) was 0 ng/mL. The concentration at 24 h (plasma, oral, 15 mg, SAD arm NCT02022306, Dose 15.00, 24 Hours) was 9.09 ng/mL, the concentration at 30 min (plasma, oral, 15 mg, SAD arm NCT02022306, Dose 15.00, 30 Minutes) was 0 ng/mL and the concentration at 48 h (plasma, oral, 15 mg, SAD arm NCT02022306, Dose 15.00, 48 Hours) was 6.98 ng/mL. It also gave a concentration at 72 h (plasma, oral, 15 mg, SAD arm NCT02022306, Dose 15.00, 72 Hours) of 5.88 ng/mL, a concentration at 96 h (plasma, oral, 15 mg, SAD arm NCT02022306, Dose 15.00, 96 Hours) of 5.19 ng/mL and a concentration at 120 h (plasma, oral, 15 mg, SAD arm NCT02022306, Dose 15.00, 120 Hours) of 4.42 ng/mL.
